Columns and labels:
[1] = system: CYP3A5; assay: Cutaneous expression and regulation by ATRA of additional CYP450s; format: in vivo
[2] = system: CYP2S1 mRNA expression; assay: CYP2S1 mRNA expression in skin after topical chemicals (Taqman quantitative real-time RT-PCR); format: in vivo, human; settings: healthy volunteers, occluded 96 hours on buttock skin, vs control skin
[3] = molecular target: T1, CYP2S1 (Homo sapiens, UniProt Q96SQ9); assay: atRA metabolism by heterologously expressed CYP2S1 (E. coli membranes co-expressing CYP2S1 and CPR, HPLC); format: in vitro ADME; settings: NADPH regenerating system
T1 construct: made in house; host or cells: E. coli (membrane fraction)
T1 sequence (Q96SQ9 1-504): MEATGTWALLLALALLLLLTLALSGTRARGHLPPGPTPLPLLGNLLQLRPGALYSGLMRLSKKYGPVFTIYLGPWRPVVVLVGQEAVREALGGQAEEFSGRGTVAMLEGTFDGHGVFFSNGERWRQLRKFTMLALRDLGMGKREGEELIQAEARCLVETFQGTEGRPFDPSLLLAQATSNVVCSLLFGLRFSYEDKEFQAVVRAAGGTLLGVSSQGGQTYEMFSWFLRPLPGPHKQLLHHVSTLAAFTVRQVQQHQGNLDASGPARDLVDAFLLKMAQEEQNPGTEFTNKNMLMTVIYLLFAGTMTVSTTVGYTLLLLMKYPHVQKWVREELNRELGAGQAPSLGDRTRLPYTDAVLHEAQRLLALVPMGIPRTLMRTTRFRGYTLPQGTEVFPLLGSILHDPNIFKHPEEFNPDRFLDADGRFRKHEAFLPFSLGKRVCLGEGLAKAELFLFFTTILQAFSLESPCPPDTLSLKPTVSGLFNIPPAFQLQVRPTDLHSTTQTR
Description: (§1) E. Coli membranes co-expressing CYP2S1 and CPR were incubated with atRA as previously described^17. CYP2S1-derived atRA metabolites (FIG. 4A) were separated by HPLC and identified by comparison with the elution profile of human liver microsomes (FIG. 4B). Control incubations were performed in the absence of the NADPH regenerating system (FIG. 4C).
(§2) The CYP2S1 cDNA, a generous gift from Professor Oliver Hankinson, Department of Pathology and Laboratory Medicine, Jonsson Comprehensive Cancer Centre and Molecular Biology Institute, UCLA, Los Angeles was constructed and co-expressed with CPR in E. Coli as previously described^16. CYP2S1 metabolism of atRA was performed using HPLC analysis as previously described^17, using E. coli membranes co-expressing CYP2S1 and CPR and an NADPH regenerating system. Control reactions were performed in the absence of CYP2S1 and in the absence of the NADPH regenerating system. CYP2S1 metabolites were identified by comparison with elution times and UV profiles of atRA metabolites generated by human liver microsomes which had previously been identified using authentic standards.

[4] = system: CYP1A1 mRNA expression; assay: CYP1A1 mRNA expression in skin of volunteer panel after topical chemicals; format: in vivo, human; settings: topical application, data not shown
[5] = system: human liver microsomes; assay: atRA metabolism by human liver microsomes (HPLC); format: in vitro ADME; settings: confirmed with authentic standard
Description: as §1, §2

Compound: CC1=C(/C=C/C(C)=C/C=C/C(C)=C/C(=O)O)C(C)(C)CCC1 [atRA, all-trans retinoic acid]
- inducibility of CYP3A5 in human skin [1]: not inducible
- individuals showing marked CYP2S1 induction (mRNA) [2]: 6/14
- atRA metabolites produced by CYP2S1 [3]: 4-OH-RA and 5,6-epoxy RA
- formation of 4-oxo RA metabolite by CYP2S1 [3]: did not appear to produce
- effect on CYP1A1 mRNA expression [4]: suppressed
- formation of 4-oxo RA metabolite by human liver microsomes [5]: produced by human liver microsomes

Source: patent US20070166712A1, “Cyp2s1 as target for diagnosis and therapy of skin diseases” (UNIVERSITY COURT OF THE UNIVERSITY OF DUNDEE, priority 2003, published 2007)
